From patent US10770169B2, “Method of providing a treatment to a subject based on a dynamic pathway map” (THE REGENTS OF THE UNIVERSITY OF CALIFORNIA, priority 2010, dated 2020)
Like-named read-outs stand apart in the source and are kept apart here.

Key:
[1] = system: panel of 55 breast cancer cell lines; assay: Cell growth inhibition assay (Cell Titer Glo, 72 h, 9 doses; GI50, TGI, LC50); type: cell-based, human; conditions: Homo sapiens, read-out: GI50 (converted)
[2] = system: luminal, basal, claudin-low and ERBB2AMP breast cancer cell lines; assay: Associations of clinically relevant subtypes and response (non-parametric ANOVA or t-test on GI50 ranks); type: cell-based, human; conditions: Table 6; most sensitive subtype, FDR p<0.20
Source text: A central premise of this study is that associations between responses and molecular subtypes observed in preclinical cell line analyses will be recapitulated in the clinic in instances where the predictive molecular features in the cell lines are mirrored in human tumors. We established response-subtype associations by using non-parametric ANOVAs to compare […] values across transcriptional and genomics subtypes.
Differences between GI50s of the groups were compared with a non-parametric ANOVA or t-test, as appropriate, on the ranks. We combined the p-values for the three sets of tests and used false discovery rate (FDR) to correct for multiple testing. For the three-sample test, we performed a post-hoc analysis on the compounds with a significant class effect by comparing each group to all others to determine which group was most sensitive. The p-values for the post-hoc test were FDR-corrected together. In all cases, FDR p<0.20 was deemed significant. […] Analyses were performed in R.

CC/C(=C(\c1ccccc1)c1ccc(OCCN(C)C)cc1)c1ccccc1 [Tamoxifen]
GI50 ([1]; 600MPE cell line, censored GI50 values): 47.9 µM
GI50 ([1]; AU565, AU565 cell line, censored GI50 values): 28.8 µM
GI50 ([1]; AU565, cell line AU565): 28.8 µM
GI50 ([1]; BT-474, BT474 cell line, censored GI50 values): 2.4 µM
GI50 ([1]; BT-474, cell line BT474): 2.4 µM
GI50 ([1]; BT-483, BT483 cell line, censored GI50 values): 24 µM
GI50 ([1]; BT-483, cell line BT483): 24 µM
GI50 ([1]; BT-549, cell line BT549): 166 µM
GI50 ([1]; CAMA-1, CAMA1 cell line, censored GI50 values): 34.7 µM
GI50 ([1]; CAMA-1, cell line CAMA1): 34.7 µM
GI50 ([1]; HCC38, HCC38 cell line, censored GI50 values): 52.5 µM
GI50 ([1]; HCC38, cell line HCC38): 52.5 µM
GI50 ([1]; HCC70, cell line HCC70): 166 µM
GI50 ([1]; HCC202, HCC202 cell line, censored GI50 values): 29.5 µM
GI50 ([1]; HCC202, cell line HCC202): 29.5 µM
GI50 ([1]; HCC1143, HCC1143 cell line, censored GI50 values): 16.2 µM
GI50 ([1]; HCC1143, cell line HCC1143): 16.2 µM
GI50 ([1]; HCC1395, HCC1395 cell line, censored GI50 values): 14.5 µM
GI50 ([1]; HCC1395, cell line HCC1395): 14.5 µM
GI50 ([1]; HCC1419, HCC1419 cell line, censored GI50 values): 33.1 µM
GI50 ([1]; HCC1419, cell line HCC1419): 33.1 µM
GI50 ([1]; HCC1428, HCC1428 cell line, censored GI50 values): 3.24 µM
GI50 ([1]; HCC1428, cell line HCC1428): 3.24 µM
GI50 ([1]; HCC1500, HCC1500 cell line, censored GI50 values): 105 µM
GI50 ([1]; HCC1500, cell line HCC1500): 105 µM
GI50 ([1]; HCC1806, HCC1806 cell line, censored GI50 values): 13.2 µM
GI50 ([1]; HCC1806, cell line HCC1806): 13.2 µM
GI50 ([1]; HCC1937, cell line HCC1937): 166 µM
GI50 ([1]; HCC1954, HCC1954 cell line, censored GI50 values): 97.7 µM
GI50 ([1]; HCC1954, cell line HCC1954): 97.7 µM
GI50 ([1]; HCC2185 cell line, censored GI50 values): 14.1 µM
GI50 ([1]; LY2 cell line, censored GI50 values): 56.2 µM
GI50 ([1]; MCF7, MCF7 cell line, censored GI50 values): 102 µM
GI50 ([1]; MCF7, cell line MCF7): 102 µM
GI50 ([1]; MDA-MB-134-VI, MDAMB134VI cell line, censored GI50 values): 83.2 µM
GI50 ([1]; MDA-MB-175-VII, MDAMB175VII cell line, censored GI50 values): 14.5 µM
GI50 ([1]; MDA-MB-415, MDAMB415 cell line, censored GI50 values): 33.9 µM
GI50 ([1]; MDA-MB-436, MDAMB436 cell line, censored GI50 values): 30.9 µM
GI50 ([1]; MDA-MB-453, MDAMB453 cell line, censored GI50 values): 36.3 µM
GI50 ([1]; SK-BR-3, SKBR3 cell line, censored GI50 values): 105 µM
GI50 ([1]; SUM52PE, SUM52PE cell line, censored GI50 values): 91.2 µM
GI50 ([1]; SUM149PT, SUM149PT cell line, censored GI50 values): 102 µM
GI50 ([1]; SUM185PE, SUM185PE cell line, censored GI50 values): 8.91 µM
GI50 ([1]; SUM1315MO2, SUM1315MO2 cell line, censored GI50 values): 100 µM
GI50 ([1]; UACC-893, UACC893 cell line, censored GI50 values): 3.09 µM
GI50 ([1]; ZR-75B, ZR75B cell line, censored GI50 values): 16.2 µM
GI50 ([1]; cell line 600MPE): 47.9 µM
GI50 ([1]; cell line HCC2185): 14.1 µM
GI50 ([1]; cell line HCC3153): 166 µM
GI50 ([1]; cell line LY2): 56.2 µM
Subtype specificity [2]: Luminal
